“And” between values parts separate entries of the source, which are not always exact repeats. Equal entries are not always repeated.
Assays:
[1] = UV-VIS absorption of the photoinitiators; type: physicochemical; conditions: for long-wave absorption maximum (λmax): UV-VIS; for extinction coefficient ε: at λmax
From the text: The photoinitiator di-Ge according to the invention with a long-wave absorption maximum of 400.5 nm has an extinction coefficient ε=3260 dm^2/mol which is thus more than twice that of benzoyltrimethylgermane mono-Ge (ε=1461 dm^2/mol), which leads to an improvement in photopolymerization activity. Compared with the Norrish type II photoinitiator camphorquinone widely used in the dental field, the extinction coefficient of which ε at λmax of 468 nm is only 380 dm^2/mol and which moreover requires an additional reducing agent, in most cases amine, for effective radical formation, the absorption maximum of di-Ge is clearly on a shorter wavelength and thus fades very well when irradiated.

[2] = background statement; cited from earlier work

Structure (SMILES) | long-wave absorption maximum (λmax) [1] | extinction coefficient ε [1] | absorption maximum wavelength [2]
[CH3][Ge]([CH3])([CH3])[C](=O)c1ccc(OCCCCCCOc2ccc([C](=O)[Ge]([CH3])([CH3])[CH3])cc2)cc1 [di-Ge, 1,6-bis[4-(trimethylgermylcarbonyl)phenoxy]hexane] | 400.5 nm | 3260 dm^2/mol | –
[CH3][Ge]([CH3])([CH3])[C](=O)c1ccccc1 [mono-Ge, benzoyltrimethylgermanium] | 411.5 nm | 1374 dm^2/mol and 1461 dm^2/mol | –
CC12CCC(C(=O)C1=O)C2(C)C (stereo not shown) [camphorquinone] | 468 nm | 380 dm^2/mol | 468 nm

Source: patent publication US8829067B2, “Polymerizable compositions with initiators containing several Ge atoms” (Ivoclar Vivadent AG, priority 2008, dated 2014)
